Series [1] deals with T1, ER (Homo sapiens, UniProt P03372).
T1 construct: T47D breast cancer cells were subcultured in cell culture medium; endogenous in cells; host or cells: T47D breast cancer cells
T1 sequence (P03372 1-595): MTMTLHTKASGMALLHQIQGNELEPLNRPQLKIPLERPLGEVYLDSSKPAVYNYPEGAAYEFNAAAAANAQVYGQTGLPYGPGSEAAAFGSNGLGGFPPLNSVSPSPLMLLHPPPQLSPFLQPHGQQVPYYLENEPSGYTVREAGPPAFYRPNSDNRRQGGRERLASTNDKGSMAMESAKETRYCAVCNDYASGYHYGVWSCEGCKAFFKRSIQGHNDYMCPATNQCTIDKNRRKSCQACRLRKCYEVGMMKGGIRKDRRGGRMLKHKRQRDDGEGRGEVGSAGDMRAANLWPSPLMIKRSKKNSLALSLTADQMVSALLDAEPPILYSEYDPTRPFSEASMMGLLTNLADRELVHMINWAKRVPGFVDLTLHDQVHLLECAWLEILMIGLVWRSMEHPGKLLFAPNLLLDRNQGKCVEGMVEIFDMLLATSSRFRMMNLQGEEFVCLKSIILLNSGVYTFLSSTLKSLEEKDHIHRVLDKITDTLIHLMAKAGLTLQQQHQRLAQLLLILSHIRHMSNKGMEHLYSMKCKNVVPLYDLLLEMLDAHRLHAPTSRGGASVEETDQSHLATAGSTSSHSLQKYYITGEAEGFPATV
Kind of series: Degradation activities on ER (ELISA) in T47D breast cancer cells. It counts as cell-based. The note with it: T47D cells, 24 h, ELISA; for Dmax: maximum percentage of target protein degraded; for DC50: concentration required to degrade 50% of the target protein. Put shortly:
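T47D cells were seeded at 2.5×10^4/well, grown 3 days at 37 °C, 5% CO2, then exposed 24 h to compound at 100, 25, 6.25, 1.56, 0.39 and […] nM (final). ER protein was quantified by sandwich ELISA with HRP/TMB read at 450 nm, and DC50 and Dmax came from dose-response fits.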

Series [2] is described as follows: Pharmacokinetics in female ICR mice. To be noted: plasma; for T1/2 (h) / AUCinf (μg*h/mL) / AUC(0-inf): oral administration 3 mg/kg, female ICR mice; for half-life / AUC(0-inf): female, ICR, mouse, po; for AUC(0-inf): AUCinf (μg*h/mL).
Protocol: Pharmacokinetic experimental steps: A suitable amount of compound to be administered was weighed, and after the final volume required was calculated, a drug solution with corresponding concentration was prepared using the medium (DMSO/HS-15/Tween 80/D5W (5:5:2:88, v/v/v/v)). For intravenous administration, each drug was administered to 9 animals (female ICR mice, provided by Chengdu Dossy Experimental Animal Co., Ltd.) at a dose of 1 mg/kg (drug volume of 10 mL/kg, drug concentration of 0.1 mg/mL). After administration, samples were alternately collected from three animals of each group at time points of 5 min, 15 min, 30 min, 1 h, 2 h, 4 h, 8 h, 12 h, and 24 h. For oral gavage, each drug was administered to 9 animals (female ICR mice) at a dose of 3 mg/kg (drug volume of 10 mL/kg, drug concentration of 0.3 mg/mL). After administration, samples are alternately collected from three animals of each group at time points of 15 min, 30 min, 1 h, 2 h, 4 h, 6 h, 8 h, 12 h, and 24 h. The samples were anticoagulated with EDTA-K2 and centrifuged at 4° C. for 5 min to separate the plasma. The plasma samples were vortexed and mixed. A suitable amount of internal standard working solution was added to the 96-well plate containing samples used for plotting standard curve, samples used for quality control, or samples to be tested; A suitable amount of methanol was added to the blank sample, vortexed and mixed thoroughly, and then centrifuged for 15 min before the supernatant was collected and injected to LC-MS/MS for analysis. The plasma concentration at each time point was used to calculate the main pharmacokinetic parameters using the Winnolin 8.3 non-compartmental model.
For series [3], the system named is MCF-7 breast cancer cells. Kind of series: Inhibition of proliferation of MCF-7 breast cancer cells (agarose culture, CellTiter-Glo 3D). It counts as cell-based. To be noted: MCF-7 cells, 15 days of cultivation, read-out: IC50. A general note: Cellular ATP, detected with luciferase, serves as a proxy for viable cell number.
For series [4], the target named is T1, ER. Kind of series: Degradation activities on ER (Western blotting) in T47D breast cancer cells. It counts as cell-based. The note with it: 24 h, Western blot. As for the experimental part:
T47D breast cancer cells were subcultured in cell culture medium, and the cells in good growth condition were seeded into 6-well plate at 2 mL/well, with 2.5×10^5 cells per well. The cells were incubated overnight in a 37° C. incubator under 5% CO2. The drug was prepared into 10 mM stock solution with dimethyl sulfoxide (DMSO). Prior to use, the stock solution was diluted with DMSO in a ratio of 1:3. […] of the diluted compound was added to the cell culture wells (to ensure a DMSO concentration of 0.1% in the culture system), and each concentration was repeated twice. The plate were gently shaken to mix. Additionally, the negative control wells (containing equal amount of DMSO) and the positive control wells were set up. After 24 hours of culture, the cells were lysed with RIPA cell lysis buffer to extract proteins, and the protein concentration was measured using a BCA kit. The protein loading buffer (5×) was added, and the plate was heated at 100° C. for 5 min. Then, the sample was stored at −20° C. […] of protein collected from each well was loaded onto a polyacrylamide gel for electrophoresis. The protein is transferred from the polyacrylamide gel to a PVDF membrane, blocked with 5% skim milk at room temperature for 1 h, and incubated overnight at 4° C. with primary antibodies Anti-ERα rabbit mAb (CST, Cat #: 8644S) and Anti-GAPDH rabbit mAb (CST, Cat #: 2118L). The membrane was washed three times with TBST solution, with 10 min for each time. The secondary antibody (horseradish peroxidase-labeled goat anti-rabbit IgG) was incubated at room temperature for 2 h, and then the membrane was washed three times with TBST solution, with 10 min for each time. Finally, ECL chromogenic solution was added for color development, and an automatic chemiluminescence instrument was used to take pictures. Images were collected and analyzed.
The degradation activities of the compounds according to the present invention towards ER, as tested by western blotting, are presented in Table 2

Where two headings read alike, the source gives them in different places. Some results are limits rather than exact numbers.

A word on the Dmax: it is the greatest extent of degradation seen. In general, IC50 refers to the concentration that inhibits the measured activity by half. Take `O=C1CCC(N2Cc3cc(N4CC5(CCN(CC6CCN(c7ccc([C@@H]8c9ccc(O)cc9OC[C@@H]8c8c(F)cccc8F)cc7)CC6)CC5)C4)ccc3C2=O)C(=O)N1` (stereo partly drawn) [Example 73, 3-(5-(7-((1-(4-((3S,4R)-3-(2,6-difluorophenyl)-7-hydroxychroman-4-yl)phenyl)piperidin-4-yl)methyl)-2,7-diazaspiro[3.5]nonane-2-yl)-1-oxoisoindol-2-yl)piperidin-2,6-dione]: on ER [1], the Dmax result is reported as “B (B: 75-50%)”. Also, in series [2], the “T1/2 (h)” value was “A (A: >3.5 h)”. In addition, the “AUCinf (μg*h/mL)” value in series [2] (3 mg/kg) is on record as “B (B: 1.4-2.5 μg*h/mL)”. Besides, the 50% inhibitory concentration (IC50) in series [3] was less than 10 nM.

The half-life is the time needed for the level to fall by half in the phase considered. A low value points to fast loss. In general, AUC(0-inf) refers to total exposure, with the tail of the curve extrapolated. With `O=C1CCC(N2Cc3cc(N4CC5(CCN(CC6CCN(c7ccc([C@@H]8c9ccc(O)cc9OC[C@@H]8c8c(F)cccc8F)cc7)CC6)CC5)C4)ccc3C2=O)C(=O)N1` (stereo partly drawn) [Example 63, 3-(5-(7-((1-(4-(3-(2,6-difluorophenyl)-7-hydroxyl-chroman-4-yl)phenyl)piperidin-4-yl)methyl)-2,7-diazaspiro[3.5]nonane-2-yl)-1-oxoisoinodolin-2-yl)piperidin-2,6-dione], the Dmax on ER [1] (read-out: Dmax) is 50 to 75%. In series [2] (3 mg/kg), this molecule returned a half-life greater than 3.5 h and an AUC(0-inf) greater than 2500 ng·h/mL. Also, the IC50 in series [3] (Homo sapiens, MCF7, 360 h) is less than 10 nM. Also, the “Percentage reduction of ER” value on ER [4] (compound concentration 10 nM) is reported as 51%.

As usually defined, the DC50 is the concentration giving 50% degradation. A higher DC50 goes with a less potent degrader. As for `O=C1CCC(N2Cc3cc(N4CC5(CCN(CC6CCN(c7ccc([C@@H]8c9ccc(O)cc9OC[C@@H]8c8ccccc8F)cc7)CC6)CC5)C4)ccc3C2=O)C(=O)N1` (stereo partly drawn) [Example 89, 3-(5-(7-((1-(4-((3S, 4R)-3-(2-fluorophenyl)-7-hydroxychroman-4-yl)phenyl)piperidin-4-yl)methyl)-2,7-diazaspiro[3.5]nonane-2-yl)-1-oxoisoinodolin-2-yl)piperidin-2,6-dione], at ER [1], the DC50 was less than 10 nM and the maximal degradation (Dmax) result is reported as “B (B: 75-50%)”. In addition, in series [2] (3 mg/kg), the half-life was greater than 3.5 h and the area under the curve AUC(0-inf) was 1400 to 2500 ng·h/mL. In addition, the 50% inhibitory concentration (IC50) in series [3] is less than 10 nM. Also, at ER [4] (compound concentration 1 nM), the “Percentage reduction of ER” value came out at 52%.

`O=C1CCC(N2Cc3cc(N4CC5(CCN(CC6CCN(c7c(F)cc([C@@H]8c9ccc(O)cc9OC[C@@H]8c8ccccc8F)cc7F)CC6)CC5)C4)ccc3C2=O)C(=O)N1` (stereo partly drawn) [Example 32, 3-(5-(7-((1-(2,6-difluoro-4-((3,4-cis)-3-(2-fluorophenyl)-7-hydroxybenzodihydropyran-4-yl)phenyl)piperidin-4-yl)methyl)-2,7-diazaspiro[3.5]nonane-2-yl)-1-oxoisoinodolin-2-yl)piperidin-2,6-dione]: the DC50 at ER [1] is less than 10 nM. Further, the maximal degradation (Dmax) on ER [1] (read-out: Dmax) fell in the range of 50 to 75%. In series [2] (3 mg/kg), the half-life was greater than 3.5 h and the area under the curve AUC(0-inf) fell in the range of 1400 to 2500 ng·h/mL. The concentration for half-maximal inhibition (IC50) in series [3] (Homo sapiens, MCF7, 360 h) is less than 10 nM. The “Percentage reduction of ER” value at ER [4] (compound concentration 10 nM) is given as 81%.

Take `O=C1CCC(N2Cc3cc(N4CC5(CCN(CC6CCN(c7ccc([C@@H]8c9ccc(O)cc9OC[C@@H]8c8ccccc8F)cc7)CC6)CC5)C4)ccc3C2=O)C(=O)N1` (stereo partly drawn) [Example 30]: at ER [1], the DC50 was less than 10 nM. The Dmax on ER [1] (read-out: Dmax) lay in the range of 50 to 75%. Further, in series [2], the “AUCinf (μg*h/mL)” value was “B (B: 1.4-2.5 μg*h/mL)” and the “T1/2 (h)” value was “A (A: >3.5 h)”. For the same molecule, the 50% inhibitory concentration (IC50) in series [3] (Homo sapiens, MCF7, 360 h) was less than 10 nM. Further, at ER [4] (compound concentration 1 nM), the “Percentage reduction of ER” value was found to be 62%.

For `O=C1CCC(N2Cc3cc(N4CC5(CCN(CC6CCN(c7ccc([C@@H]8c9ccc(O)cc9OC[C@@H]8c8c(F)cccc8F)cc7F)CC6)CC5)C4)ccc3C2=O)C(=O)N1` (stereo partly drawn) [Example 65, 3-(5-(7-((1-(4-(3-(2,6-difluorophenyl)-7-hydroxyl-chroman-4-yl)-2-fluorophenyl)piperidin-4-yl)methyl)-2,7-diazaspiro[3.5]nonane-2-yl)-1-oxoisoinodolin-2-yl)piperidin-2,6-dione], at ER [1], the half-maximal degradation concentration (DC50) is less than 10 nM. Also, the Dmax on ER [1] (read-out: Dmax) fell in the range of 50 to 75%. Besides, in series [2] (3 mg/kg), the half-life is greater than 3.5 h and the AUC(0-inf) was greater than 2500 ng·h/mL. Moreover, the IC50 in series [3] (Homo sapiens, MCF7, 360 h) was 11 to 50 nM.

For the molecule `O=C1CCC(N2Cc3cc(N4CC5(CCN(CC6CCN(c7ccc([C@@H]8c9ccc(O)cc9OC[C@@H]8c8c(F)cccc8F)cc7F)CC6)CC5)C4)ccc3C2=O)C(=O)N1` (stereo partly drawn) [Example 70, 3-(5-(7-((1-(4-((3S,4R)-3-(2,6-difluorophenyl)-7-hydroxychroman-4-yl)-2-fluorophenyl)piperidin-4-yl)methyl)-2,7-diazaspiro[3.5]nonane-2-yl)-1-oxoisoinodolin-2-yl)piperidin-2,6-dione], on ER [1], the DC50 is less than 10 nM and the greatest degradation seen (Dmax) result is on record as “B (B: 75-50%)”. For the same molecule, in series [2], the “AUCinf (μg*h/mL)” value is on record as “A (A: > 2.5 μg*h/mL)” and the “T1/2 (h)” value was “A (A: >3.5 h)”. Further, the IC50 in series [3] is less than 10 nM.

As for `O=C1CCC(N2Cc3cc(N4CC5(CCN(CC6CCN(c7c(F)cc([C@@H]8c9ccc(O)cc9OC[C@@H]8c8c(F)cccc8F)cc7F)CC6)CC5)C4)ccc3C2=O)C(=O)N1` (stereo partly drawn) [Example 37], the DC50 on ER [1] is less than 10 nM. Moreover, the maximal degradation (Dmax) on ER [1] (read-out: Dmax) fell in the range of 50 to 75%. In series [2] (3 mg/kg), this molecule yielded a half-life greater than 3.5 h and a total exposure AUC(0-inf) greater than 2500 ng·h/mL.

For `O=C1CCC(N2Cc3cc(N4CC5CN(CC6CCN(c7ccc([C@@H]8c9ccc(O)cc9CC[C@@H]8c8ccccc8)cc7)CC6)CC5C4)ccc3C2=O)C(=O)N1` (stereo partly drawn) [Example 26, 3-(5-(5-((1-(4-((1R,2S)-6-hydroxyl-2-phenyl-1,2,3,4-tetrahydronaphthalen-1-yl)phenyl)piperidin-4-yl)methyl)hexahydropyrrolo[3,4-c]pyrrole-2(1H)-yl)-1-oxoisoinodolin-2-yl)piperidin-2,6-dione], the DC50 at ER [1] was less than 10 nM. On ER [1] (read-out: Dmax), the greatest degradation seen (Dmax) was 50 to 75%. Moreover, the half-inhibitory concentration (IC50) in series [3] (Homo sapiens, MCF7, 360 h) is less than 10 nM. In addition, at ER [4] (compound concentration 1 nM), the “Percentage reduction of ER” value is on record as 56%.

For the origin of these results see US20260258039A1, “AROMATIC COMPOUND, METHOD FOR PREPARING SAME, AND USE THEREOF IN PREPARATION OF ESTROGEN RECEPTOR DEGRADER” (Hinova Pharmaceuticals Inc., priority 2022, published 2026).
